Experiments:
[1] = tested on: human cerebral artery rings; test: Prostanoid agonist effects on isolated human cerebral artery rings (organ bath, isometric tension); type: cell-based; details: for effect on human cerebral artery rings contracted with phenylephrine: smaller diameter vessels, phenylephrine (1 µM), GR32191 (1 µM) present to block TP-receptors, Figures 3-5
Method: (§1) Sections of cerebral artery were removed from different regions of preparations of human cerebral vasculature containing an intact circle of Willis. Intact rings of this cerebral artery, 2-3mm in length, were set up under isometric conditions in 10 ml organ baths under an initial tension of 1g. All tissues were maintained at 37°C and gassed constantly with 95% O2 / 5% CO2. Following a 90 min equilibration period all tissues were challenged with phenylephrine (1 µM), to determine tissue viability. Once a stable contraction had been obtained, tissues were exposed to a range of prostanoid receptor agonists, in the absence or presence of receptor antagonists, to determine the functional role of prostanoid receptors in maintaining arterial tone.

pulmonary artery = test: Effect of PGE2 on pre-contracted pulmonary artery rings; type: cell-based, human; details: tone induced with U-46619 (10-100nM), n=3 donors; cicaprost 0.1-1µM
Method: (§2) Rings (2-4mm internal diameter) were prepared from sections of pulmonary or coronary artery (n=3 each). They were mounted in organ baths under isometric conditions, in gassed Krebs solution (containing indomethacin) at 37°C, and 1-1.5g initial tone.
(§3) After at least 60min equilibration, tone was induced with U-46619 (10-100nM) in pulmonary artery or either phenylephrine (1-10µM) or endothelin-1 (-7M) in coronary artery.

coronary artery = test: Effect of PGE2 on pre-contracted coronary artery rings; type: cell-based, human; details: for relaxation of coronary artery: tone induced with phenylephrine (1-10µM) or endothelin-1, n=3 donors, cicaprost 0.1-1µM
Method: as §2, §3

EP2 = EP2 (Homo sapiens, UniProt P43116); details: cited from earlier work
EP4 receptor = molecular target: T1, EP4 receptor (Homo sapiens, UniProt P35408); test: Antagonism of PGE2-mediated relaxation of phenylephrine pre-contracted middle cerebral artery rings; type: cell-based; details: 10 mM AH23848, 45 mins preincubation, P=0.004, 2 tailed T-Test
T1 construct: Intact rings of this cerebral artery, 2-3mm in length, were set up under isometric conditions; from tissue; host or cells: human middle cerebral artery rings (one donor)
Method: as §1
To test the effect of the EP4 receptor antagonist AH23848, cerebral rings were preincubated for 45 mins with 10 mM AH23848.

EP1 = molecular target: T2, EP1 (Homo sapiens, UniProt P34995); details: cited from earlier work
T2 sequence (P34995 1-402): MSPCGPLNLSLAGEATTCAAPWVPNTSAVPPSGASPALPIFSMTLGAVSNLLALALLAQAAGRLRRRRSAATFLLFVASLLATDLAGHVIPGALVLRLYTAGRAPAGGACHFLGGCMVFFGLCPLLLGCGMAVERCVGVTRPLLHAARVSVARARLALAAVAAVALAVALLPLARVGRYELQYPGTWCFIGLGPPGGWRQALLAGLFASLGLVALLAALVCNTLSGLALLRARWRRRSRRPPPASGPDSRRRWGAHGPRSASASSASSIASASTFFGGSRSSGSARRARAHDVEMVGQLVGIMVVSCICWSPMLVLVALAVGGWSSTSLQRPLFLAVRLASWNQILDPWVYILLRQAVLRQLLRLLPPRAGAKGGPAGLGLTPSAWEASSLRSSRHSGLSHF

EP4 receptors = molecular target: T3, EP4 receptors (Sus scrofa, UniProt I3LLK4); details: antagonism of PGE2-induced relaxation of piglet saphenous vein through blockade of EP4 receptors; cited from earlier work
T3 construct: providing a natural source of the receptors, such as piglet saphenous vein; host or cells: piglet saphenous vein rings (tissue, endogenous receptor)

EP3 = molecular target: T4, EP3 (Homo sapiens, UniProt P43115); details: cited from earlier work
T4 sequence (P43115 1-390): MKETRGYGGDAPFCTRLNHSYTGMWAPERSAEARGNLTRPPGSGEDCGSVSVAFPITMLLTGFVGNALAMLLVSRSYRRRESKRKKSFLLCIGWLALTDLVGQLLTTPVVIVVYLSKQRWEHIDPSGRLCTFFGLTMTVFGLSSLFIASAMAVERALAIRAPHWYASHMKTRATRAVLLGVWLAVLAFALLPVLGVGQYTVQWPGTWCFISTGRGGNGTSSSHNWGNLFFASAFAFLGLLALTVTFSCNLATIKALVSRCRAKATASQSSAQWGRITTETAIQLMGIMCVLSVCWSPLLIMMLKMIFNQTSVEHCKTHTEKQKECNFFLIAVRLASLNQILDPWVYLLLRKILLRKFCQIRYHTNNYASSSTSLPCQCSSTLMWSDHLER

Chain of EP2 (P43116 whole entry): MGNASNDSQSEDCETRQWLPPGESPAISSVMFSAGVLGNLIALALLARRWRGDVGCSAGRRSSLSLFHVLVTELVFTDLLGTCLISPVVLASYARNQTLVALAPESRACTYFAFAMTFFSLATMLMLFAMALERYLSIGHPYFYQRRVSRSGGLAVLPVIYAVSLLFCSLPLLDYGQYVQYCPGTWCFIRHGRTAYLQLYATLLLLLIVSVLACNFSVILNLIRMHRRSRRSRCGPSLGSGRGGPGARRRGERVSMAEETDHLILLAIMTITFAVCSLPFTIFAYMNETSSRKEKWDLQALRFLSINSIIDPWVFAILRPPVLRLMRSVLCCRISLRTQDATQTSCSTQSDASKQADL
T3 sequence (I3LLK4 1-489): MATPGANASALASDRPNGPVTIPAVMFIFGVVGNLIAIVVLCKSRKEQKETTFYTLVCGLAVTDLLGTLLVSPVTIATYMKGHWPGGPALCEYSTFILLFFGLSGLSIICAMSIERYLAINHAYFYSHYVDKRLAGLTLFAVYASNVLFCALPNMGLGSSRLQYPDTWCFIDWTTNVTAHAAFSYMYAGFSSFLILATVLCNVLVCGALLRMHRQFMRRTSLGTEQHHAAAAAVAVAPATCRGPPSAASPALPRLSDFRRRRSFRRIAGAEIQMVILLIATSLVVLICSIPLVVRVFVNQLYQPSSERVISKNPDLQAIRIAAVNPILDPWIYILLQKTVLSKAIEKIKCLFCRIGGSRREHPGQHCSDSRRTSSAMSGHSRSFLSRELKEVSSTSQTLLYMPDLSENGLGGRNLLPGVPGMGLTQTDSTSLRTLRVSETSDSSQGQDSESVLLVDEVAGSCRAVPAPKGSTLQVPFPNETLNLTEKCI
T1 sequence (P35408 whole entry): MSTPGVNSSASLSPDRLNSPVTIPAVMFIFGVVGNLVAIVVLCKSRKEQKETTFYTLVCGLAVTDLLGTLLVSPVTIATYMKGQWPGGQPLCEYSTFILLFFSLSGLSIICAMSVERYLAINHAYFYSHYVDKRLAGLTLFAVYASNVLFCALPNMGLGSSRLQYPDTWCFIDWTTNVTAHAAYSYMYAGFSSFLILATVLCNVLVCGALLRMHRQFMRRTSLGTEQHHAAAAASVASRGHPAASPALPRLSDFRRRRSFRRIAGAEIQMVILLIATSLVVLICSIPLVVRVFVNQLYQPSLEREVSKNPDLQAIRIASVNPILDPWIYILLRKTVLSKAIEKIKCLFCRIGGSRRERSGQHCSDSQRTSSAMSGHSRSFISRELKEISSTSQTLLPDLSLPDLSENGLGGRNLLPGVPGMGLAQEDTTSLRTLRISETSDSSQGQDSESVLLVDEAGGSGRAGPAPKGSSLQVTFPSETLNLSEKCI

Compound: CCCCC[C@H](O)/C=C/[C@H]1[C@H](O)CC(=O)[C@@H]1C/C=C\CCCC(=O)O [PGE2, prostaglandin E2]
- relaxation of cerebral artery rings pre-contracted with 5-HT ([1]; 5-HT (300nM and 1µM), Figure 2B, 2C): maximal or near maximal relaxation
- relaxation of cerebral artery rings pre-contracted with U46619 ([1]; U46619 (100nM), Figure 2A): maximal or near maximal relaxation
- concentration at which maximum relaxation occurs ([1]; cerebral blood vessel pre-contracted with phenylephrine, Figure 1): below 10^-6 M
- effect on larger vessels ([1]; human cerebral artery, internal diameter > 1mm): concentration-related contraction
- effect on smaller vessels ([1]; pre-contracted human cerebral blood vessels, internal diameter < 1mm): potent concentration-related relaxation
- relaxation of pulmonary artery (pulmonary artery): did not cause relaxation
- contraction of coronary artery (coronary artery; pre-contracted coronary artery, likely due to activation of EP3 receptors): A small contraction
- relaxation of coronary artery (coronary artery): did not cause relaxation

Compound: CC#CCC(C)[C@H](O)/C=C/[C@@H]1[C@H]2C/C(=C/CCCC(=O)O)C[C@H]2C[C@H]1O (some centres unmarked) [Iloprost]
- effect on human cerebral artery rings contracted with phenylephrine [1]: induced relaxation

Compound: CCCCC[C@H](O)/C=C/[C@H]1C(=O)C[C@H](O)[C@@H]1C/C=C\CCCC(=O)O [PGD2]
- effect on human cerebral artery rings contracted with phenylephrine [1]: without effect

Compound: CCC#CC[C@H](C)[C@H](O)C#C[C@@H]1[C@H]2C/C(=C/COCC(=O)O)C[C@H]2C[C@H]1O [cicaprost]
- effect on human cerebral artery rings contracted with phenylephrine [1]: induced relaxation
- relaxation of pulmonary artery (pulmonary artery): induced a relaxation in all preparations
- relaxation of coronary artery (coronary artery): induced a relaxation in all preparations

Compound: O=C(O)CCC=CCCC1C(OCc2ccc(-c3ccccc3)cc2)CC(=O)C1N1CCOCC1 (centres unmarked) [AH23848]
- effect on EP receptor subtype EP2 (EP2): no effect
- shift in the PGE2-mediated relaxation (EP4 receptor): significant rightward shift
- effect on EP receptor subtype EP1 (EP1): no effect
- pA2 (EP4 receptors): 5.4
- effect on EP receptor subtype EP3 (EP3): no effect

Compound: O=C(O)CCC/C=C\C[C@H]1[C@@H](OCc2ccc(-c3ccccc3)cc2)CC(=O)[C@@H]1N1CCOCC1 [AH22921]
- effect on EP receptor subtype EP2 (EP2): no effect
- effect on EP receptor subtype EP1 (EP1): no effect
- pA2 (EP4 receptors): 5.3
- effect on EP receptor subtype EP3 (EP3): no effect

Compound: CCCCC[C@H](O)/C=C/[C@@H]1[C@@H](C/C=C\CCCC(=O)O)[C@@H](O)C[C@H]1O [PGF2α]
- effect on human cerebral artery rings contracted with phenylephrine [1]: without effect
